Reference: US11397186B2, “Methods for covalently binding a cell surface protein and a ligand” (UNIVERSITEIT GENT, priority 2016, dated 2022)
Non-standard residues stand in square brackets, D forms with d. Residues, ends and D or L forms follow the SMILES beside them. Ala(2-furyl) = N[C@@H](Cc1ccco1)C(=O)O

Target: T1, μ-opioid receptor (MOR) (Homo sapiens, UniProt P35372)
T1 construct: expressed in transfected cells; host or cells: CHO-hOR cells (CHO cells expressing the human opioid receptor)
Experiment: Opioid receptor radio-ligand binding assay (CHO-hOR cells)
Conditions: based on Table 1
Procedure: Next, the synthesised peptides were subjected to biological activity testing, to know whether they still bind to the opioid receptor. If so, it is tested to which opioid receptor subtype they bind. It is also investigated whether the opioid peptides behave as agonist or antagonist. The following assays are performed: radio-ligand binding assay, ^35S GTP binding assay, and tissue experiments, including guinea pig ileum (GPI) and mouse vas deferens (MVD) tests.

T1 sequence (P35372 whole entry): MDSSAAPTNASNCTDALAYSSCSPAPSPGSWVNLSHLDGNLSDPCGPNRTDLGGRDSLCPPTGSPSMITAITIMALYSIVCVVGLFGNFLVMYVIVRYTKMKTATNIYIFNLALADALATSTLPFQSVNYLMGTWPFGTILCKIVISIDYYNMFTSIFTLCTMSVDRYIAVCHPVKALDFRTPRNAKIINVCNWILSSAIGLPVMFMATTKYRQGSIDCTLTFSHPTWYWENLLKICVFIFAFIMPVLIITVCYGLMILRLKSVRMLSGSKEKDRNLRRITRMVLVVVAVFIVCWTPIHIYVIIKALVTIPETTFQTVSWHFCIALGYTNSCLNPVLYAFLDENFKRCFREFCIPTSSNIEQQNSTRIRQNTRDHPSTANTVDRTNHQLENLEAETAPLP

N=C(N)NCCC[C@@H](NC(=O)[C@@H](N)Cc1ccc(O)cc1)C(=O)N[C@@H](Cc1ccco1)C(=O)N[C@@H](Cc1ccccc1)C(N)=O [FUA3] (H-Y[dR][Ala(2-furyl)]F-NH2; N-terminus and C-terminus assumed)
binding to the opioid receptor, assessment in words: acceptable
